{"source": "paper PMC10961089", "about": "“Epidermal growth factor receptor inhibition potentiates chemotherapeutics‐mediated sensitization of metastatic breast cancer stem cells” (Cancer Reports, 2024)", "key": {"[1]": {"tested_on": "CD24^−/CD44^+‐breast CSCs xenotransplanted tumors", "assay": "Preclinical orthotopic xenograft murine tumor model (tumor size, weight, H&E histology)", "format": "in vivo, C57BL/6 mice", "procedure": "(§1) Animal studies have been carried out with the prior approval of the Institutional Animal Ethics Committee (IICT/IAEC/025/2023). C57BL/6 female mice of age 6–8 weeks (N = 35) were initially immunosuppressed with cyclophosphamide (50 mg/kg of body weight, i.p) on alternate days for 2 weeks. For generating a preclinical orthotopic xenograft tumor model, 2 × 10^6 GFP expressing sorted stable CD24^+‐breast cancer cells and CD24^−/CD44^+‐breast CSCs were orthotopically xeno‐transplanted subcutaneously at the fourth mammary fat pad of immune‐suppressed mice (n = 5/group). Subsequently, intratumoral administration of Doxorubicin at a low dose (2.5 mg/kg of body weight), high dose (10 mg/kg of body weight), and/or combinatorial treatment of the potent EGFR inhibitor, compound 1e (50 mg/kg of body weight) or the commercial EGFR inhibitor, PD153035 (50 mg/kg of body weight) with a low dose of doxorubicin was performed to the palpable tumors of breast CSCs at day‐3 post‐transplantation.\nEuthanization of mice was performed on day 14 post‐transplantation and tumor tissues were collected for histological and immunohistochemical analysis. Histological differences in tumor tissues were evaluated using hematoxylin and eosin staining (H&E).[28], [30]"}, "[2]": {"tested_on": "MDA‐MB‐468", "assay": "Cell migration (chemotaxis), Boyden-Chamber assay", "format": "cell-based, human", "conditions": "Doxorubicin 0.01 μM + compound 5 μM (PD153035 10 μM) vs 10% FBS and Doxorubicin alone", "procedure": "(§2) TNBC cell lines—MDA‐MB‐231, MDA‐MB‐468, and the sorted CD24^+‐breast cancer cells, and CD24^−/CD44^+‐breast CSC populations from MDA‐MB‐231 [6] were seeded at a density of 1 × 10^6 cells/well to evaluate their migratory potential by Boyden‐Chamber assay. […] At the end of the treatment period, the cells were plated at a density of 5 × 10^3 cells/well in the upper chamber of the Boyden chamber assembly and 10% FBS in the lower chamber was used as a chemoattractant. Separately, the cells in the upper chamber were treated with Doxorubicin (0.01–0.1 μM) alone or with the potential EGFR inhibitors (compounds—1c, 1e, 1g, 1h, 1j, and 1k (5 μM) based on their low IC50 values) or a commercial EGFR inhibitor, PD153035 (10 μM) and incubated for 4 h followed by fixation and staining as described previously.[28], [29]"}, "[3]": {"tested_on": "MDA‐MB‐231", "assay": "Cell migration (chemotaxis), Boyden-Chamber assay", "format": "cell-based, human", "conditions": "Doxorubicin 0.01 μM + compound 5 μM (PD153035 10 μM) vs 10% FBS and Doxorubicin alone", "procedure": "as §2"}, "[4]": {"tested_on": "Bax and Cytochrome‐C in MDA‐MB‐231 cells", "assay": "Gene expression of apoptotic genes, semi-quantitative RT-PCR", "format": "cell-based, human", "conditions": "MDA-MB-231, doxorubicin + compound 5 μM, 24 h", "procedure": "Briefly, the cells were incubated at 37°C with serum starvation followed by culturing as described above. […] Briefly, the template RNA (1 μg) was utilized for cDNA synthesis using a First‐strand cDNA synthesis kit (Thermo Scientific, USA) according to the manufacturer's protocol. Thermal cycler (Mastercycler® nexus, Eppendorf) was used for the amplification of the expression of apoptotic genes—Bax, Bcl2, Cytochrome‐C, and target gene EGFR with the help of Dream Taq DNA Polymerase PCR Master Mix (Thermo Scientific, USA) along with human gene‐specific forward and reverse primer sequences of the apoptotic genes and EGFR (Table ST1). The expression of the target genes was normalized to the Eukaryotic 18S rRNA."}, "[5]": {"tested_on": "MDA‐MB‐231", "set-up": "method as in PMID 28398698", "conditions": "unit not printed in the sentence (Table 1 in μM); read-out: IC50 against MDA‐MB‐231; cited from earlier work"}, "[6]": {"tested_on": "human CD44, ALDH1A1, Fibronectin, N‐Cadherin, Vimentin in tumor tissue", "assay": "qRT-PCR of human CSC/EMT genes in tumor tissues", "format": "in vivo, C57BL/6 mice", "conditions": "with doxorubicin low dose vs low dose doxorubicin alone", "procedure": "Additionally, total RNA was isolated from tumor tissues and utilized for cDNA synthesis (Thermo Scientific, Massachusetts, USA). To determine the transcriptional regulation of expression of EMT genes in tumor tissues subjected to various treatment regimes, quantitative real‐time PCR (qRT‐PCR) analysis was performed as described previously[28] using human gene‐specific forward and reverse primers of EMT genes. Amplification of Eukaryotic 18S rRNA served as an internal control and was utilized to calculate the fold change in expression.[29]\nas §1"}, "[7]": {"tested_on": "CD44, p‐EGFR, p‐JNK, p‐p38 in tumor tissue", "assay": "Immunohistochemical analysis of tumor tissue (colocalization with GFP, Pearson's correlation coefficient)", "format": "in vivo, C57BL/6 mice", "procedure": "as §1\nImmunohistochemical analysis was performed by immunostaining the tissue serial sections with primary antibodies against GFP, CD44, p‐EGFR, p‐JNK, and p‐p38 (CST, USA) followed by alexafluor‐488/555 conjugated secondary antibodies (R&D systems, USA) and mounting medium containing DAPI.[28], [29] Images were captured using a confocal microscope (Olympus FV10i, Tokyo, Japan). Pearson's correlation coefficient was utilized to determine the co‐localization of GFP/CD44, GFP/p‐EGFR, GFP/p‐JNK, and GFP/p‐p38 (Table. ST3)."}, "[8]": {"tested_on": "MDA‐MB‐468", "set-up": "method as in PMID 28398698", "conditions": "unit not printed in the sentence (Table 1 in μM); read-out: IC50 against MDA‐MB‐468; cited from earlier work"}}}
{"compound": "COc1cc2ncnc(Nc3cccc(Br)c3)c2cc1OC", "note": "[PD153035, reference compound]", "values": [{"measurement": "tumorigenicity (H&E histology)", "setting": "[1]; 50 mg/kg + low dose doxorubicin 2.5 mg/kg, CSC xenograft", "result": "significant decrease"}, {"measurement": "histopathological finding in tumor tissue", "setting": "[1]; 50 mg/kg + low dose doxorubicin 2.5 mg/kg, CSC xenograft, day 14", "result": "neoplastic mass in the dermal region which was completely necrosed and replaced with fibrous tissue"}, {"measurement": "tumor size", "setting": "[1]; intratumoral, 50 mg/kg + doxorubicin low dose 2.5 mg/kg vs low dose doxorubicin alone, CD24^−/CD44^+ CSC xenograft", "result": "significantly decreased"}, {"measurement": "migratory potential", "setting": "[2]", "result": "significant decrease"}, {"measurement": "migratory potential", "setting": "[3]", "result": "significant decrease"}, {"measurement": "expression of pro‐apoptotic genes Bax and Cytochrome‐C", "setting": "[4]", "result": "marked increase"}, {"measurement": "IC50", "setting": "[5]", "result": 3.2, "unit": "µM"}, {"measurement": "expression level of human CD44 in tumor tissue", "setting": "[6]", "result": "significantly decreased"}, {"measurement": "colocalization of GFP/p‐EGFR", "setting": "[7]; with doxorubicin low dose, CSC xenograft tumor tissue", "result": "decreased significantly"}, {"measurement": "activation of apoptotic signaling mediators (GFP/p‐JNK, GFP/p‐p38 colocalization)", "setting": "[7]; with low dose doxorubicin, comparable with high dose doxorubicin alone", "result": "increased activation"}, {"measurement": "colocalization of GFP and CD44 (Pearson's correlation coefficient)", "setting": "[7]; with low dose of doxorubicin, CSC xenograft tumor tissue", "result": "comparable to the high dose of doxorubicin treated group"}, {"measurement": "IC50", "setting": "[8]", "result": 15.4, "unit": "µM"}]}
